From patent US20190150445A1, “SUBSTITUTED HALOGEN(THIO)ACYL COMPOUNDS” (priority 2016, published 2019)
Where two headings read alike, the source gives them in different places.

Tests used:
Ctenocephalides felis [1] = assay: Ctenocephalides felis in-vitro contact test, adult cat flea; format: in vivo; details: 5 μg/cm^2 (=500 g/ha), after 48 hours
Method: Ctenocephalides felis—in-vitro contact tests adult cat flea
9 mg compound is solved in 1 ml acetone and diluted with acetone to the desired concentration. 250 μl of the test solution is filled in 25ml glass test tubes and homogeneously distributed on the inner walls by rotation and tilting on a shaking device (2 h at 30 rpm). With a compound concentration of 900 ppm, an inner surface of 44,7 cm^2 and a homogeneous distribution, a dose of 5 μg/cm^2 is achieved.
After the solvent has evaporated, each test tube is filled with 5-10 adult cat fleas (Ctenocephalides felis), closed with a perforated lid and incubated in a lying position at room temperature and relative humidity. After 48 hours efficacy is determined. The fleas are patted on the ground of the tubes and are incubated on a heating plate at 45-50° C. for at most 5 minutes Immotile or uncoordinated moving fleas, which are not able to escape the heat by climbing upwards, are marked as dead or moribund.
An efficacy of 100% means all fleas are dead or moribund; 0% means no fleas are dead or moribund.

Ctenocephalides felis [2] = assay: Ctenocephalides felis oral test (CTECFE); format: in vivo; details: 48 h, 100 ppm in cattle blood, adult unfed cat fleas, after 2 days
Method: Ctenocephalides felis—oral test (CTECFE)
(§1) Solvent: dimethyl sulfoxide
To produce a suitable preparation of active compound, 10 mg of active compound are dissolved in 0.5 ml solvent, and the concentrate is diluted with cattle blood to the desired concentration.
Approximately 20 adult unfed cat fleas (Ctenocephalides felis) are placed in flea chambers. The blood chamber, sealed with parafilm on the bottom, are filled with cattle blood supplied with compound solution and placed on the gauze covered top of the flea chamber, so that the fleas are able to suck the blood. The blood chamber is heated to 37° C. whereas the flea chamber is kept at room temperature.
After 2 days mortality in % is determined. 100% means all the fleas have been killed; 0% means none of the fleas have been killed.

Lucilia cuprina = Lucilia cuprina test (LUCICU); format: in vivo; details: 48 h
Method: Lucilia cuprina—test (LUCICU)
as §1
10 mg active compound are dissolved in 0,5 ml Dimethylsulfoxid. Serial dilutions are made to obtain the desired rates.
Approximately 20 1st instar larvae of the Australian sheep blowfly (Lucilia cuprina) are transferred into a test tube containing minced horse meat and compound solution of the desired concentration.
After 2 days mortality in % is determined. 100% means all the larvae have been killed; 0% means none of the larvae have been killed.

Musca domestica = Musca domestica test (MUSCDO); format: in vivo; details: 48 h
Method: Musca domestica—test (MUSCDO)
as §1
To produce a suitable preparation of active compound, 10 mg of active compound are dissolved in 0.5 ml solvent, and the concentrate is diluted with water to the desired concentration.
10 adult house flies (Musca domestica) are transferred into a container, containing a sponge soaked with a mixture of sugar solution and compound solution of the desired concentration.
After 2 days mortality in % is determined. 100% means all the flies have been killed; 0% means none of the flies have been killed.

Diabrotica balteata = Diabrotica balteata spray test; format: in vivo; details: 160 gg/well, larvae on germinated wheat seeds, after 7 days
Method: Diabrotica balteata—spray test
Further test concentrations are prepared by dilution with emulsifier containing water.
Soaked wheat seeds (Trificum aestivum) are placed in a multiple well plate filled with agar and some water and are incubated for 1 day to germinate (5 seeds per well). The germinated wheat seeds are sprayed with a test solution containing the desired concentration of the active ingredient. Afterwards each unit is infected with 10-20 larvae of the banded cucumber beetle (Diabrofica balteata).
After 7 days efficacy in % is determined.

Myzus persicae [3] = assay: Myzus persicae spray test; format: in vivo; details: in Brassica rapa, foliar
Method: Myzus persicae—spray test
(§2) To produce a suitable preparation of active compound, 1 part by weight of active compound is mixed with the stated amount of solvents and is diluted with water, containing an emulsifier concentration of 1000 ppm, to the desired concentration. Further test concentrations are prepared by dilution with emulsifier containing water.
Chinese cabbage (Brassica pekinensis) leaf disks infected with all instars of the green peach aphid (Myzus persicae), are sprayed with a preparation of the active ingredient of the desired concentration.
After 5-6 days mortality in % is determined. 100% means all aphids have been killed and 0% means none of the aphids have been killed.

Nezara viridula = Nezara viridula spray test (solvent 52.5 parts acetone, 7 parts dimethylformamide); format: in vivo; details: in Hordeum vulgare, 96 h
Method: Nezara viridula—spray test
To produce a suitable preparation of active compound, 1 part by weight of active compound is mixed with the stated amount of solvent, and the concentrate is diluted with water, containing an emulsifier concentration of 1000 ppm, to the desired concentration Ammonium salt and/or penetration enhancer in a dosage of 1000 ppm are added to the desired concentration if necessary.
Barley plants (Hordeum vulgare) infested with larvae of the southern green stink bug (Nezara viridula) are sprayed with a test solution containing the desired concentration of the active ingredient.
After 4 days mortality in % is determined. 100% means all the stink bugs have been killed; 0% means none of the stink bugs have been killed.

Nilaparvata lugens [4] = assay: Nilaparvata lugens spray test (solvent 52.5 parts acetone, 7 parts dimethylformamide); format: in vivo; details: in Oryza sativa, 96 h
Method: (§3) Nilaparvata Wens—spray test
To produce a suitable preparation of active compound, 1 part by weight of active compound is mixed with the stated amount of solvents and is diluted with water, containing an emulsifier concentration of 1000 ppm, to the desired concentration. Further test concentrations are prepared by dilution with emulsifier containing water Ammonium salt and/or penetration enhancer in a dosage of 1000 ppm are added to the desired concentration if necessary.
Rice plants (Oryza sativa) are treated by being sprayed with the desired concentration of the active compound and are infested with larvae of the brown planthopper (Nilaparvata lugens).
(§4) After 4 days mortality in % is determined. 100% means all planthoppers have been killed and 0% means none of the planthoppers have been killed.

LogP-Value (HCOOH) = format: physicochemical; details: for chromatographic logP: HCOOH (formic acid)
Myzus persicae [5] = assay: Myzus persicae oral test; format: in vivo; details: 120 h
Method: To produce a suitable preparation of active compound, 1 part by weight of active compound is mixed with the stated amount of solvent, and the concentrate is diluted with water to the desired concentration.
50 μl compound solution is filled in microtiter plates and 150 μl IPL41 insect medium (33% +15% sugar) is added to obtain a total volume of […] per well. Afterwards the plates are sealed with parafilm through which a mixed population of the green peach aphid (Myzus persicae) can suck on the compound preparation.
After 5 days mortality in % is determined. 100% means all aphids have been killed and 0% means none of the aphids have been killed.

Phaedon cochleariae = Phaedon cochleariae spray test; format: in vivo; details: foliar, 168 h, larvae on Chinese cabbage leaf disks, after 7 days
Method: Phaedon cochleariae—spray test
as §2
Chinese cabbage (Brassica pekinensis) leaf disks are sprayed with a preparation of the active ingredient of the desired concentration. Once dry, the leaf disks are infested with mustard beetle larvae (Phaedon cochleariae).
After 7 days mortality in % is determined. 100% means all beetle larvae have been killed and 0% means none of the beetle larvae have been killed.

Nilaparvata lugens [6] = assay: Nilaparvata lugens spray test (solvent 78.0 parts acetone, 1.5 parts dimethylformamide); format: in vivo; details: in Oryza sativa, 96 h
Method: as §3, §2
Rice plants (Oryza sativa) are sprayed with a preparation of the active ingredient of the desired concentration and the plants are infested with the brown planthopper (Nilaparvata lugens).
as §4

[7] = 100 ppm, 1st instar larvae, after 2 days, read-out: mortality

SMILES	efficacy (fleas dead or moribund) (Ctenocephalides felis [1])	mortality at 100 ppm (Ctenocephalides felis [2])	mortality at 100 ppm (Lucilia cuprina; [7])	mortality at 20 ppm (Musca domestica)	efficacy (seedlings grown up) (Diabrotica balteata)	mortality at 100 g/ha (Myzus persicae [3])	mortality at 500 g/ha (Nezara viridula)	mortality at 500 g/ha (Nilaparvata lugens [4])	chromatographic logP (LogP-Value (HCOOH))	mortality at 4 ppm (Myzus persicae [5])	mortality at 500 g/ha (Phaedon cochleariae)	mortality at 500 g/ha (Nilaparvata lugens [6])	LogP-Value (HCOOH) (LogP-Value (HCOOH))	mortality at 100 ppm (Lucilia cuprina)	mortality at 20 ppm (Myzus persicae [5])
O=C(/C=C1\NCCN1Cc1cnc(Cl)c(F)c1)C(F)(F)F [Example I-2, 3-[1-[(6-Chloro-5-fluoro-3-pyridinyl)methyl]-2-imidazolidinylidene]-1,1,1-trifluoro-2-propanone]	100%	100%	100%	100%	100%	100%	90%	100%	2.19	–	–	–	–	–	–
Fc1cc(CN2CCN/C2=C\C(=S)C(F)(F)F)cnc1Cl [Example I-4, 3-[1-[(6-Chloro-5-fluoro-3-pyridinyl)methyl]-2-imidazolidinylidene]-1,1,1-trifluoro-2-propanthione]	100%	95%	100%	–	100%	–	–	–	2.59	100%	83%	100%	2,61	–	–
Fc1cc(CN2CCS/C2=C\C(=S)C(F)(F)F)cnc1Cl [Example I-3, 3-[3-[(6-Chloro-5-fluoro-3-pyridinyl)methyl]-2-thiazolidinylidene]-1,1,1-trifluoro-2-propanthione]	–	–	–	–	100%	–	–	–	1.2	100%	–	100%	–	100%	100%
O=C(/C=C1\SCCN1Cc1cnc(Cl)c(F)c1)C(F)(F)F [Example I-1]	100%	–	–	90%	100%	100%	100%	100%	2.47	–	–	–	2,48	100%	–
